The values that follow come from PubChem BioAssay AID292 (DTP/NCI, 2004).

Values joined by “and” are separate entries in the source; they are usually repeats but may differ in a detail not shown here. Identical values can stand only once. Inconclusive results and toxic doses are left out.

This test has as its system B6C3F1 mice, ip Sarcoma M5076, median survival T/C. The test is described as follows: NCI In Vivo Anticancer Drug Screen. Data for tumor model Sarcoma M5076 (intraperitoneal) in B6C3F1 mice. To be noted: endpoint: median survival time, higher = longer survival. The essentials:
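Mice carrying the transplanted tumour received compound treatment. Survival was recorded, and each value is the treated-group measurement divided by that of the vehicle-dosed control group.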

Where [1] appears, read: dose: 25.0 mg/kg/injection, schedule: Q04DX004 (ip), vehicle: water.
Where [2] appears, read: dose: 50.0 mg/kg/injection, schedule: Q04DX004 (ip), vehicle: water.
The mark [3] stands for this setting: dose: 100.0 mg/kg/injection, schedule: Q04DX004 (ip), vehicle: water.
The mark [4] stands for this setting: dose: 50.0 mg/kg/injection, schedule: Q04DX004 (ip), vehicle: Klucel (hydroxypropylcellulose) (HPC).
[5] abbreviates: dose: 100.0 mg/kg/injection, schedule: Q04DX004 (ip), vehicle: Klucel (hydroxypropylcellulose) (HPC).
Where [6] appears, read: dose: 200.0 mg/kg/injection, schedule: Q04DX004 (ip), vehicle: Klucel (hydroxypropylcellulose) (HPC).
Where [7] appears, read: dose: 400.0 mg/kg/injection, schedule: Q04DX004 (ip), vehicle: Klucel (hydroxypropylcellulose) (HPC).
The mark [8] stands for this setting: dose: 800.0 mg/kg/injection, schedule: Q04DX004 (ip), vehicle: Klucel (hydroxypropylcellulose) (HPC).
Setting [9] is: dose: 25.0 mg/kg/injection, schedule: Q04DX004 (ip), vehicle: saline with Tween-80.
Where [10] appears, read: dose: 50.0 mg/kg/injection, schedule: Q04DX004 (ip), vehicle: saline with Tween-80.
The mark [11] stands for this setting: dose: 12.5 mg/kg/injection, schedule: Q04DX004 (ip), vehicle: saline with Tween-80.
Where [12] appears, read: dose: 25.0 mg/kg/injection, schedule: Q04DX004 (ip), vehicle: Klucel (hydroxypropylcellulose) (HPC).

Regarding `O=C(O)C(O)C(O)C1[O][Sb][O]C1C(=O)O` (stereo not drawn), the T/C runs as follows: (dose: 9.37 mg/kg/injection, schedule: Q04DX004 (ip), vehicle: saline) 100 % of control; (dose: 9.38 mg/kg/injection, schedule: Q04DX004 (ip), vehicle: saline) 107 % of control; (dose: 18.75 mg/kg/injection, schedule: Q04DX004 (ip), vehicle: saline) 99 % of control and 110 % of control; (dose: 37.5 mg/kg/injection, schedule: Q04DX004 (ip), vehicle: saline) 110 % of control and 114 % of control; (dose: 75.0 mg/kg/injection, schedule: Q04DX004 (ip), vehicle: saline) 99 % of control and 111 % of control.
With `N#Cc1ccc(NN=O)nc1`, the T/C is, setting by setting: (dose: 6.25 mg/kg/injection, schedule: Q04DX004 (ip), vehicle: water) 124 % of control; (dose: 6.5 mg/kg/injection, schedule: Q04DX004 (ip), vehicle: water) 116 % of control; under setting [1], 152 % of control; under setting [2], 160 % of control and 177 % of control; (dose: 83.0 mg/kg/injection, schedule: Q04DX004 (ip), vehicle: water) 182 % of control; under setting [3], 118 % of control. The T/C (dose: 139.0 mg/kg/injection, schedule: Q04DX004 (ip), vehicle: water) was 200 % of control.
Take `N#CC1C(=O)NC(=O)C(C#N)C1c1c2ccccc2cc2ccccc12` (stereo not drawn): the T/C under setting [4] was 96 % of control; the T/C under setting [5] is 103 % of control; the T/C under setting [6] was 94 % of control; the T/C under setting [7] is 106 % of control; the T/C under setting [8] was 102 % of control.
For `COc1cc2c(c(OC)c1O)-c1ccc(OC)c(=O)cc1[C@@H](NC(=O)C(F)(F)F)CC2`, the T/C by setting is: (dose: 0.9 mg/kg/injection, schedule: Q04DX004 (ip), vehicle: Klucel (hydroxypropylcellulose) (HPC)) 110 % of control; (dose: 1.55 mg/kg/injection, schedule: Q04DX004 (ip), vehicle: Klucel (hydroxypropylcellulose) (HPC)) 124 % of control; (dose: 2.59 mg/kg/injection, schedule: Q04DX004 (ip), vehicle: Klucel (hydroxypropylcellulose) (HPC)) 122 % of control; (dose: 4.32 mg/kg/injection, schedule: Q04DX004 (ip), vehicle: Klucel (hydroxypropylcellulose) (HPC)) 124 % of control; (dose: 7.2 mg/kg/injection, schedule: Q04DX004 (ip), vehicle: Klucel (hydroxypropylcellulose) (HPC)) 124 % of control.
As to `COC(=O)NC1C(C)OC(OC2C/C=C(/C)C3C=CC4C(OC5CC(OC6CC(OC7CC(O)C(O)C(C)O7)C(OC7CC(O)C(OC)C(C)O7)C(C)O6)C(O)C(C)O5)C(C)CC(C)C4C3(C)/C(O)=C3\C(=O)OC4(CC(C)C(CO)=CC4/C=C\2C)C3=O)CC1(C)[N+](=O)[O-]` (stereo not drawn), the T/C (dose: 12.5 mg/kg/injection, schedule: Q04DX004 (ip), vehicle: water) was 97 % of control; the T/C under setting [1] was 100 % of control; the T/C under setting [2] is 94 % of control; the T/C under setting [3] was 104 % of control; the T/C (dose: 200.0 mg/kg/injection, schedule: Q04DX004 (ip), vehicle: water) is 111 % of control.
As for `COc1ccc(O)cc1`, the T/C under setting [9] was 102 % of control; the T/C under setting [10] is 98 % of control; the T/C (dose: 100.0 mg/kg/injection, schedule: Q04DX004 (ip), vehicle: saline with Tween-80) was 105 % of control; the T/C (dose: 200.0 mg/kg/injection, schedule: Q04DX004 (ip), vehicle: saline with Tween-80) is 113 % of control.
With `COc1cc2c(c(OC)c1OC)-c1ccc(SC)c(=O)cc1[C@@H](NC(C)=O)CC2`, the T/C by setting is: (dose: 0.03 mg/kg/injection, schedule: Q04DX004 (ip), vehicle: Klucel (hydroxypropylcellulose) (HPC)) 102 % of control; (dose: 0.05 mg/kg/injection, schedule: Q04DX004 (ip), vehicle: Klucel (hydroxypropylcellulose) (HPC)) 106 % of control; (dose: 0.1 mg/kg/injection, schedule: Q04DX004 (ip), vehicle: Klucel (hydroxypropylcellulose) (HPC)) 104 % of control and 113 % of control; (dose: 0.14 mg/kg/injection, schedule: Q04DX004 (ip), vehicle: Klucel (hydroxypropylcellulose) (HPC)) 114 % of control; (dose: 0.19 mg/kg/injection, schedule: Q04DX004 (ip), vehicle: Klucel (hydroxypropylcellulose) (HPC)) 112 % of control; (dose: 0.23 mg/kg/injection, schedule: Q04DX004 (ip), vehicle: Klucel (hydroxypropylcellulose) (HPC)) 116 % of control. Besides, the T/C (dose: 0.45 mg/kg/injection, schedule: Q04DX004 (ip), vehicle: Klucel (hydroxypropylcellulose) (HPC)) was 103 % of control.
In the case of `c1ccc2c(c1)oc1cc3c(cc12)ncc1cccn13`, the T/C was 95 % of control (dose: 6.25 mg/kg/injection, schedule: Q04DX004 (ip), vehicle: saline with Tween-80); 90 % of control under setting [11]; 91 % of control under setting [9].
`O=C(O)c1cccc2c1ccc1ccccc12`: the T/C is, setting by setting: (dose: 4.0 mg/kg/injection, schedule: Q04DX004 (ip), vehicle: saline with Tween-80) 109 % of control; (dose: 8.0 mg/kg/injection, schedule: Q04DX004 (ip), vehicle: saline with Tween-80) 102 % of control; (dose: 8.0 mg/kg/injection, schedule: Q04DX005 (ip), vehicle: saline) 98 % of control; (dose: 16.0 mg/kg/injection, schedule: Q04DX004 (ip), vehicle: saline with Tween-80) 107 % of control; (dose: 16.0 mg/kg/injection, schedule: Q04DX005 (ip), vehicle: saline) 93 % of control; (dose: 32.0 mg/kg/injection, schedule: Q04DX004 (ip), vehicle: saline with Tween-80) 105 % of control. The T/C was 96 % of control (dose: 32.0 mg/kg/injection, schedule: Q04DX005 (ip), vehicle: saline); 103 % of control (dose: 64.0 mg/kg/injection, schedule: Q04DX004 (ip), vehicle: saline with Tween-80); 94 % of control (dose: 64.0 mg/kg/injection, schedule: Q04DX005 (ip), vehicle: saline); 96 % of control (dose: 128.0 mg/kg/injection, schedule: Q04DX005 (ip), vehicle: saline).
As for `O=C1c2ccccc2C(=O)c2c1cn1c2Cc2ccccc2C1`, the T/C under setting [12] is 90 % of control; the T/C (dose: 25.0 mg/kg/injection, schedule: Q04DX004 (ip), vehicle: other) was 96 % of control and 102 % of control; the T/C under setting [4] is 91 % of control and 93 % of control; the T/C (dose: 50.0 mg/kg/injection, schedule: Q04DX004 (ip), vehicle: other) is 96 % of control and 103 % of control; the T/C under setting [5] was 90 % of control; the T/C (dose: 100.0 mg/kg/injection, schedule: Q04DX004 (ip), vehicle: other) was 106 % of control. For the same compound, the T/C reads like this: (dose: 150.0 mg/kg/injection, schedule: Q04DX004 (ip), vehicle: other) 93 % of control; under setting [6], 88 % of control; (dose: 200.0 mg/kg/injection, schedule: Q04DX004 (ip), vehicle: other) 97 % of control; under setting [7], 89 % of control and 95 % of control.
Take `[NH-]C(CCC(N)=O)C(=O)O.[NH-]C(CCC(N)=O)C(=O)O.[Zn+2]` (stereo not drawn): the T/C is 103 % of control under setting [11], 98 % of control under setting [9] and 96 % of control under setting [10].
Take `CN(C)N=Nc1ccccc1`: the T/C is, setting by setting: (dose: 12.5 mg/kg/injection, schedule: Q04DX004 (ip), vehicle: Klucel (hydroxypropylcellulose) (HPC)) 113 % of control; under setting [12], 159 % of control; under setting [4], 187 % of control; under setting [5], 156 % of control.
Take `Cc1c(-c2ccc(C3CCCCC3)cc2)nc2ccc(F)cc2c1C(=O)O`: the T/C is 114 % of control and 121 % of control under setting [4]; 118 % of control and 122 % of control under setting [5]; 152 % of control under setting [8].
For the compound `Nc1ccc(S(=O)(=O)Nc2cnc3c(Cl)cccc3n2)cc1`, the T/C was 104 % of control (dose: 100.0 mg/kg/injection, schedule: Q04DX004 (ip), vehicle: DMSO); 102 % of control (dose: 200.0 mg/kg/injection, schedule: Q04DX004 (ip), vehicle: DMSO); 93 % of control (dose: 400.0 mg/kg/injection, schedule: Q04DX004 (ip), vehicle: DMSO).
In the case of `Cc1nc(N)nc(N)c1-c1ccc(Cl)c(Cl)c1`, the T/C by setting is: (dose: 1.25 mg/kg/injection, schedule: Q04DX004 (ip), vehicle: saline) 105 % of control; (dose: 2.5 mg/kg/injection, schedule: Q04DX004 (ip), vehicle: saline) 100 % of control; (dose: 5.0 mg/kg/injection, schedule: Q04DX004 (ip), vehicle: saline) 102 % of control; (dose: 10.0 mg/kg/injection, schedule: Q04DX004 (ip), vehicle: saline) 113 % of control.
